Results on four molecules are retold here after ChEMBL document CHEMBL5046285, “Probing Fluorinated Motifs onto Dual AChE-MAO B Inhibitors: Rational Design, Synthesis, Biological Evaluation, and Early-ADME Studies” (J Med Chem, 2022).

A short description of data set [1]: Kinetic aqueous solubility of the compound in PBS incubated for 2 hrs under mild shaking at pH 7.4 by UV- vis spectrophotometric analysis. The format is physicochemical. As to conditions: read-out: Kinetic_solubility.
A short description of data set [2]: 1-Octanol/PBS buffer distribution coefficient, log D of the compound at 1 uM measured after 24 hrs at pH 7.4 by shake flask based HPLC-ES-MS/MS analysis. Type of data set: physicochemical.
The nature of data set [3]: Chromatographic hydrophobicity index of the compound in ammonium acetate buffer at pH 7.4 by RP-HPLC analysis. The format is physicochemical.
A short description of data set [4]: Effective permeability of the compound in PBS buffer at pH 7.4 by PAMPA-BBB assay. Type of data set: ADME. To be noted: read-out: Peff. (In PAMPA a lipid-coated filter parts donor from acceptor wells.)
Data set [5] in a line: Apparent permeability across basolateral to apical side in human Caco-2 cells at 10 uM incubated for 60 mins by HPLC-MS/MS method. The format is ADME, cell-based.
The nature of data set [6]: Apparent permeability across apical to basolateral side in human Caco-2 cells at 10 uM incubated for 60 mins by HPLC-MS/MS method. The format is ADME, cell-based. A general note: Caco-2 monolayers are a common model of the intestinal barrier.
Data set [7] can be described thus: Efflux ratio of apparent permeability across basolateral to apical side over apical to basolateral side in human Caco-2 cells. The format is ADME, cell-based.
Data set [8] can be described thus: Microsomal stability in human liver microsomes assessed as half life at 0.5 uM incubated upto 60 mins in presence of NADPH by LC/MS/MS analysis. Type of data set: ADME, Microsome. In general terms: Liver microsomes are vesicles of endoplasmic reticulum, rich in cytochrome P450 enzymes.
Data set [9] can be described thus: Microsomal stability in mouse liver microsomes assessed as half life at 0.5 uM incubated upto 30 mins in presence of NADPH by LC/MS/MS analysis. Type of data set: ADME, Microsome.
Data set [10] is described as follows: Intrinsic clearance in human liver microsomes at 0.5 uM incubated upto 60 mins in presence of NADPH measured per mg protein by LC/MS/MS analysis. To be noted: read-out: CLH. Type of data set: ADME, Microsome.
The nature of data set [11]: Intrinsic clearance in mouse liver microsomes at 0.5 uM incubated upto 30 mins in presence of NADPH measured per mg protein by LC/MS/MS analysis. The format is ADME, Microsome. As to conditions: read-out: CLH.
For data set [12], the target named is Cytochrome P450 3A4 (Homo sapiens, UniProt P08684). Put plainly: Inhibition of human recombinant CYP3A4 expressed in baculosomes by fluorescent homogenous assay. Type of data set: ADME.
Data set [13] addresses Albumin (Homo sapiens, UniProt P02768). Briefly: Binding affinity to human serum albumin assessed as dissociation […] constant by surface plasmon resonance assay. Type of data set: ADME, cell-free.
In data set [14] the test system is SH-SY5Y. Put plainly: Cytotoxicity against human SH-SY5Y cells assessed as reduction in cell viability at 1 to 100 uM incubated for 4 hrs by CellTiter-Glo luminescence assay. The format is toxicity, cell-based. To be noted: dose 1-100 µM.
In data set [15] the test system is HepG2. Briefly: Cytotoxicity against human HepG2 cells assessed as reduction in cell viability at 1 to 100 uM incubated for 4 hrs by CellTiter-Glo luminescence assay. Type of data set: toxicity, cell-based. To be noted: hepg2, 4 h, dose 1-100 µM.
The target in data set [16] is T1, MAO-A (Homo sapiens, UniProt P21397).
T1 sequence (P21397 whole entry): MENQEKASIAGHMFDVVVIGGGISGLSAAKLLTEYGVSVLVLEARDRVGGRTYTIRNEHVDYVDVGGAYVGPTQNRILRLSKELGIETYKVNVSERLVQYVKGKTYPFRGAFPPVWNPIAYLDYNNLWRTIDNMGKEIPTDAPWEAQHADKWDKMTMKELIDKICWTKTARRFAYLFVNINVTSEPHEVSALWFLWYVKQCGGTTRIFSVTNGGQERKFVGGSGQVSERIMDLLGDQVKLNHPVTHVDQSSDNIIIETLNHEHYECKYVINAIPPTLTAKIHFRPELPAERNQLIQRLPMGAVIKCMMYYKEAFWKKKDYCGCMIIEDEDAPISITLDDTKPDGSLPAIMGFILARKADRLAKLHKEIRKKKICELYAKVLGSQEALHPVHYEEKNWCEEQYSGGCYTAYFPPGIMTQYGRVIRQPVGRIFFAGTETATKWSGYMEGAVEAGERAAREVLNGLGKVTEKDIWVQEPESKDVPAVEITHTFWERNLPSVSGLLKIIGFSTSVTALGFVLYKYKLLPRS
Briefly: in vitro. To be noted: recombinant MAO-A expressed in supersomes, probe kynuramine.

The species named for data set [17] is Homo sapiens. Briefly: Selectivity for human recombinant MAO-B expressed in supersomes over human recombinant MAO-A expressed in supersomes.
In data set [18] the target is T2, Amine oxidase [flavin-containing] B (Homo sapiens, UniProt P27338).
T2 sequence (P27338 whole entry): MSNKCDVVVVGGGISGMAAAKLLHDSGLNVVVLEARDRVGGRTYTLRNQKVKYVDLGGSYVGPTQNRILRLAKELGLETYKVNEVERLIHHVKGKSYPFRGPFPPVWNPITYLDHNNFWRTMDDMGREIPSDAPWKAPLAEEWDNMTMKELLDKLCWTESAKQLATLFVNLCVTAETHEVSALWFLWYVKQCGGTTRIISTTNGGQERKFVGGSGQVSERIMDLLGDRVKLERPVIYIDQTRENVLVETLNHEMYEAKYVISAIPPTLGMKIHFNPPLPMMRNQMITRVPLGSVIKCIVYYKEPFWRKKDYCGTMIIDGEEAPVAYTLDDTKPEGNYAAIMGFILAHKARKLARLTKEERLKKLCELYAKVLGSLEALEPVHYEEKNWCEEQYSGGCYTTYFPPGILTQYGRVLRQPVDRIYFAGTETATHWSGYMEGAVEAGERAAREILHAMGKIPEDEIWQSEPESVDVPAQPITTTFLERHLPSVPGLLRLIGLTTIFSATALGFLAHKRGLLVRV
Put plainly: Inhibition of human recombinant MAO-B expressed in supersomes assessed as inhibition of 4-hydroxyquinoline formation using kynuramine as substrate by spectrophotometric method.

Data set [19] can be described thus: Cytotoxicity against human SH-SY5Y cells assessed as reduction in cell viability incubated for 4 hrs by CellTiter-Glo luminescence assay. The format is toxicity, cell-based.
Data set [20] can be described thus: Cytotoxicity against human HepG2 cells assessed as reduction in cell viability incubated for 4 hrs by CellTiter-Glo luminescence assay. The format is toxicity, cell-based.
The target of data set [21] is T2, Amine oxidase [flavin-containing] B.
Description: Inhibition of human recombinant MAO-B expressed in supersomes assessed as inhibition of 4-hydroxyquinoline formation using kynuramine as substrate by spectrofluorimetric analysis
In data set [22] the target is T3, Acetylcholinesterase (Homo sapiens, UniProt P22303).
Description: Inhibition of human recombinant AChE by Ellman's spectrophotometric assay
For data set [23], the target named is Cholinesterase (Equus caballus, UniProt P81908).
Description: Inhibition of horse serum BChE by Ellman's spectrophotometric assay
Data set [24] relates to HepG2. Briefly: Cytotoxicity against human HepG2 cells assessed as reduction in cell viability at 100 uM incubated for 4 hrs by CellTiter-Glo luminescence assay. The format is toxicity, cell-based. As to conditions: hepg2, 4 h.
Data set [25] concerns the target T3, Acetylcholinesterase. Put plainly: Mixed type inhibition of human AChE by Lineweaver-Burk plot analysis.
Data set [26] addresses T2, Amine oxidase [flavin-containing] B. Briefly: Competitive inhibition of human recombinant MAO-B expressed in supersomes using kynuramine as substrate by Lineweaver-Burk plot analysis.
For data set [27], the system named is SH-SY5Y. Briefly: Cytotoxicity against human SH-SY5Y cells assessed as reduction in cell viability at 100 uM incubated for 4 hrs by CellTiter-Glo luminescence assay. The format is toxicity, cell-based.
Data set [28] deals with SH-SY5Y. Put plainly: Neuroprotective activity against H2O2-induced neurotoxicity in human SH-SY5Y cells assessed as increase in cell viability at 1 to 5 uM co-incubated with H2O2 for 24 hrs by MTT assay. As to conditions: dose 1-5 µM. Type of data set: functional, cell-based.
Data set [29] relates to SH-SY5Y. Put plainly: Neuroprotection against Amyloid beta-induced cytotoxicity in human SH-SY5Y cells assessed as increase in cell viability at 0.1 to 1 uM co-incubated with Amyloid beta for 24 hrs by MTT assay. The format is functional, cell-based. To be noted: dose 0.1-1 µM.
Data set [30] deals with SH-SY5Y. Put plainly: Neuroprotective activity against NMDA -induced cytotoxicity in human SH-SY5Y cells assessed as increase in cell viability at 0.1 to 5 uM co-incubated with NMDA for 24 hrs by MTT assay. The format is functional, cell-based. As to conditions: dose 0.1-5 µM.
Data set [31] deals with Cholinesterase (Equus caballus) (UniProt P81908). Put plainly: Inhibition of horse serum BChE at 10 uM by Ellman's spectrophotometric assay. The format is cell-free.
The target of data set [32] is T2, Amine oxidase [flavin-containing] B. Briefly: Reversible inhibition of human recombinant MAO-B expressed in supersomes using kynuramine as substrate at 10 nM co-incubated with enzyme and measured over 6 hrs by spectrophotometric method. As to conditions: 0.01 µM.

The structures appear in SMILES notation. pIC50, pKd, pKi: −log10 of the molar value. Values after ≈ are worked out from the molar mass of the structure shown. Active and inactive are the calls of the source. Bounds are passed on as bounds.

Sequence of Cytochrome P450 3A4 (P08684 whole entry): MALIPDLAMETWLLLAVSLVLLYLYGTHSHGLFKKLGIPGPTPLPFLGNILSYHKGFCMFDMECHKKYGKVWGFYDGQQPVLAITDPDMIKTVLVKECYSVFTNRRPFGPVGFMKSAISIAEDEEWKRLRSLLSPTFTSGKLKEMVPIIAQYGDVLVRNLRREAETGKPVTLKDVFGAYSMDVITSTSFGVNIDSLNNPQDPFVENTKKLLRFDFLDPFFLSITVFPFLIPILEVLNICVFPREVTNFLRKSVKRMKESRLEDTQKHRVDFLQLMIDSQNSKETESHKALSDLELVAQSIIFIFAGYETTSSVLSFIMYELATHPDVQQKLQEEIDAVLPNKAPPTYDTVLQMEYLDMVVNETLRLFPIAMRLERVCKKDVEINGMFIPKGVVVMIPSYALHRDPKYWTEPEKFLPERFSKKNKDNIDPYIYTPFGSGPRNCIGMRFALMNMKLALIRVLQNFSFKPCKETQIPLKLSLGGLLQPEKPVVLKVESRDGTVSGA
T3 sequence (P22303 whole entry): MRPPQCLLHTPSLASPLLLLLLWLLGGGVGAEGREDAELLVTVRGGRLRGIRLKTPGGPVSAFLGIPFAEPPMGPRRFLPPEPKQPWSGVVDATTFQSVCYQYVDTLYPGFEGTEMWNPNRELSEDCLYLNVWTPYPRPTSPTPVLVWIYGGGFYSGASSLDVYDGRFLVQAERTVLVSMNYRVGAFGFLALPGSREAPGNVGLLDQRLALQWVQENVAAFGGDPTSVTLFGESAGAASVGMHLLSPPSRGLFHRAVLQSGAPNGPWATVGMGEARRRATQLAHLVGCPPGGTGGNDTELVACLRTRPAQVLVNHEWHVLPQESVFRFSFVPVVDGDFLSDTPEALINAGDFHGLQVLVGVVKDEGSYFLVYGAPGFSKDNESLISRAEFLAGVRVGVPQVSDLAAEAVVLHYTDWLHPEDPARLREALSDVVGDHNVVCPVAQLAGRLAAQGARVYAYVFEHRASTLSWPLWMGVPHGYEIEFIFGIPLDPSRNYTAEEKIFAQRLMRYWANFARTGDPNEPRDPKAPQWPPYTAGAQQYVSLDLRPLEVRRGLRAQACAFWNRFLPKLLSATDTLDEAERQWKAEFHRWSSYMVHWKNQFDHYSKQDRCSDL
Sequence of Albumin (P02768 whole entry): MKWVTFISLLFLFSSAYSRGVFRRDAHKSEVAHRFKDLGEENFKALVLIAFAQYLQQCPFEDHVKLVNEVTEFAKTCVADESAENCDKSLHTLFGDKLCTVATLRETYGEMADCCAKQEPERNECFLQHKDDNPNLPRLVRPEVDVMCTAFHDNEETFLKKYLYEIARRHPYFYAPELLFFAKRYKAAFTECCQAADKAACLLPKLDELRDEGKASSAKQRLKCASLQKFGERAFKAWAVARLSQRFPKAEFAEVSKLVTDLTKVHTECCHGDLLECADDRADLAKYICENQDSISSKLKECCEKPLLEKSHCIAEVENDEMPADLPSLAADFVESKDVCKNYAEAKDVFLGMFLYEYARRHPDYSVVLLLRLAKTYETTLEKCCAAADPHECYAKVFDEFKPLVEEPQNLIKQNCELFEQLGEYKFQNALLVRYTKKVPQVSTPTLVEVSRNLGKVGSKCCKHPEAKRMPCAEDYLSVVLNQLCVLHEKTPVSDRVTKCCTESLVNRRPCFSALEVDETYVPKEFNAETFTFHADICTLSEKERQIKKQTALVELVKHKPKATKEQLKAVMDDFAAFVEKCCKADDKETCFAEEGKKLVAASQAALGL
Sequence of Cholinesterase (P81908 whole entry): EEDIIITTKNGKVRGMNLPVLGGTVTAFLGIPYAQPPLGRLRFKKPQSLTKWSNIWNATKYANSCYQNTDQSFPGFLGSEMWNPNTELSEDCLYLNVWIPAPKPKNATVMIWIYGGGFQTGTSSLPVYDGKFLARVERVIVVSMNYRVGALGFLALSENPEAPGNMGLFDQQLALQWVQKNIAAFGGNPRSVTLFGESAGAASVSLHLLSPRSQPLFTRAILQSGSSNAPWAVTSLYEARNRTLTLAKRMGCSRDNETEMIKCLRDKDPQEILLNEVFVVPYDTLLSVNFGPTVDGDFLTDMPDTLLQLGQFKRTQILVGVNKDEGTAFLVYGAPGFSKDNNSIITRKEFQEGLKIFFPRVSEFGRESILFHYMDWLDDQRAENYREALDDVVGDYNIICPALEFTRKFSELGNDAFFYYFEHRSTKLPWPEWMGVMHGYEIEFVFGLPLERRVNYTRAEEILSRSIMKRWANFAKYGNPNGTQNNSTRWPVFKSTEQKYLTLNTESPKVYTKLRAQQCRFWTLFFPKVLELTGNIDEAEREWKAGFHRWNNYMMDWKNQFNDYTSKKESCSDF
Sequence of Cholinesterase (Equus caballus) (P81908 whole entry): as above

For the molecule `Cc1c(C)c2ccc(OCC3CCN(CCCO)CC3)cc2oc1=O`, in [1], the solubility kinetic at 2 h was above 500 µM. Moreover, the pH-dependent lipophilicity (logD) at 24 h, 1 µM in data set [2] was 0.86. Also, the CHI in [3] was determined as 47.3. Moreover, the Papp in [4] was 6 ×10⁻⁶ cm/s. In addition, the Papp B→A at 1 h, 10 µM in [5] is 22 ×10⁻⁶ cm/s. For the same molecule, the Papp A→B at 1 h, 10 µM in [6] is 19 ×10⁻⁶ cm/s. Moreover, the efflux ratio in [7] is 1.2. Further, the half-life at 0.5 µM in data set [8] was above 120 min; in data set [9], 47.2 min. In addition, the values for the microsomal CLint at 0.5 µM in [10] and in data set [11] were below 11.5 µL/min/mg and 29.5 µL/min/mg, respectively. The pIC50 in [12] was below 5.00. The pKd in [13] was 4.50. Besides, the Activity result in data set [14] and in [15] was “Non-Toxic” in each case. In data set [16], the inhibition at 10 µM worked out at 50%.
On to `CN(Cc1ccc(COc2ccc3c(CO)cc(=O)oc3c2)cc1)Cc1cccc(F)c1`, for which the solubility kinetic at 2 h in data set [1] turned out to be 2.4 µM (≈ 1.04 µg/mL). Besides, in data set [2], the pH-dependent lipophilicity (logD) at 24 h, 1 µM is 4.29. The CHI in data set [3] was above 100. Moreover, in data set [9], the half-life at 0.5 µM was 36.9 min. In addition, in data set [11], the microsomal CLint at 0.5 µM was determined as 37.7 µL/min/mg. Further, the negative logarithm of the IC50 (pIC50) in [12] was 5.46; in data set [21], 8.00; in [22] it was 6.48; in data set [23], 5.96. In addition, the Selectivity Index in [17] was above 1000. Besides, the “inhibition (INH)” value in data set [18] is on record as “Active”. For the same molecule, the half-inhibitory concentration (IC50) at 4 h in data set [19] and in data set [20] was 40000 nM throughout. Also, the inhibition at 10 µM in [16] was found to be 47%.
Turning to `CN(CCCC(F)F)Cc1ccc(COc2ccc3c(CO)cc(=O)oc3c2)cc1`, the solubility kinetic at 2 h in [1] is 201 µM (≈ 83.9 µg/mL). Further, in data set [2], the logD at 24 h, 1 µM stood at 2.48. Besides, the CHI in data set [3] is 76.4. In data set [4], the Papp is above 14 ×10⁻⁶ cm/s. Also, the apparent permeability from basolateral to apical (Papp B→A) at 1 h, 10 µM in data set [5] was 16 ×10⁻⁶ cm/s. Also, the apparent permeability from apical to basolateral (Papp A→B) at 1 h, 10 µM in [6] was 25 ×10⁻⁶ cm/s. Moreover, the efflux ratio in data set [7] was 0.6. Further, the Activity result in data set [24] and in data set [27] was “Non-Toxic” throughout. In addition, the half-life at 0.5 µM came out at 34.9 min in data set [8] and 25 min in data set [9]. The microsomal CLint at 0.5 µM came out at 39.8 µL/min/mg in data set [10] and 55.6 µL/min/mg in data set [11]. For the same molecule, the negative logarithm of the IC50 (pIC50) in data set [12] is 5.00; in data set [21], 8.09; in data set [22], 6.26. In addition, the negative-log Ki (pKi) was 5.70 in data set [25] and 7.89 in data set [26]. For the same molecule, the outcome in data set [28], in data set [29] and in data set [30] was Active. For the same molecule, the pKd in data set [13] is 4.95. This molecule also showed an inhibition in data set [31] of 34%. Besides, in data set [17], the Selectivity Index is above 1250. Moreover, the “inhibition (INH)” value in data set [18] and in data set [32] was “Active” throughout. Besides, the inhibition at 10 µM in data set [16] came out at 34%.
Consider `C[C@H](NCc1ccc(OCc2cccc(F)c2)cc1)C(N)=O` [SAFINAMIDE], for which the “inhibition (INH)” value in data set [32] is “Active”.

One may read the logD as lipophilicity at a set pH, counting ionised and neutral species. What is called Papp B→A is how fast a substance crosses the layer from the basolateral side. As usually defined, the Papp A→B is how fast a substance crosses the layer from the apical side. A word on the efflux ratio: it is the permeability from basolateral to apical divided by that in the opposite direction, in the common usage. For orientation: half-life means the time needed for the level to fall by half in the phase considered. By pIC50 is commonly meant the negative decadic logarithm of the IC50, by convention in mol/L. What is called pKd is the Kd on a negative log10 scale, so that one unit is a factor of ten. A word on the inhibition: it is the percentage by which the read-out fell short of the control. The IC50 is the midpoint of a concentration-inhibition curve. For orientation: pKi means the negative decadic logarithm of the Ki, by convention in mol/L.
